For one data set, the system named is T. b. brucei 427-WT. The experiment in a line: Alamar Blue (resazurin) assay, T. b. brucei Lister 427 wild-type bloodstream forms. Particulars: for EC50: Trypanosoma brucei; for activity against Trypanosoma species (in words): Trypanosoma species (T. b. brucei and T. congolense).
The subject of the next data set is T. b. brucei B48. The experiment in a line: Alamar Blue (resazurin) assay, multi-drug resistant T. b. brucei B48. The data set is classed as cell-based. The following applies: Trypanosoma brucei, read-out: T. b. brucei EC50, B48. How it is done: (§1) The four compounds were tested for activity against the following three kinetoplastid pathogens: Trypanosoma brucei brucei, Trypanosoma congolense, and Leishmania mexicana. For the two Trypanosoma species, the compounds were tested in parallel against strains that were resistant to the most common trypanocides. T. b. brucei B48 is highly resistant to the entire classes of diamidines and melaminophenyl arsenicals, and T. congolense DA-Res was rendered resistant to diminazene aceturate by means of in vitro exposure to the drug. […] For the drug-resistant trypanosome strains, highly significant resistance to diamidines was confirmed, but there was no cross-resistance with the chalcones and flavanones. […] While this dataset of two chalcones is self-evidently insufficient for a structure–activity relationship (SAR) analysis, it is clear that the position of the hydroxy and methoxy groups on ring A (Figure 1) influenced the trypanocidal activity without increasing the toxicity.

The next data set relates to T. congolense DA-Res. The format is cell-based, Trypanosoma congolense. Particulars: for EC50: Trypanosoma congolense, read-out: T. congolense EC50, DA-Res. Here is the method:
as §1

The next data set has as its system HFF cells. Put plainly: Drug toxicity assay in human foreskin fibroblast (HFF) cells, resazurin. The following applies: EC50 (HFF)/EC50(427-WT). The data set is classed as cell-based.
Assay in data set [1]: as above
Particulars: HFF (human foreskin fibroblast) cells; human foreskin fibroblasts; highest concentration tested 100 µg/mL; mean ± SEM, n>=3. The format is cell-based.

The next data set relates to T. congolense IL3000-WT. Put plainly: Alamar Blue (resazurin) assay, T. congolense IL3000 wild-type bloodstream forms.
The mark [2] stands for this setting: 72 h, read-out: T. b. brucei EC50, 427-WT, bloodstream forms, 48 h + 24 h resazurin, mean ± SEM, n>=3.

In brackets after ≈: the same amount, converted by molar mass. Where two headings read alike, the source gives them in different places. Bounds are passed on as bounds.

With `N=C(N)c1ccc(OCCCCCOc2ccc(C(=N)N)cc2)cc1` [Pentamidine, reference compound], the EC50 with T. b. brucei 427-WT (setting [2]) is 0.0034 ± 0.0004 µM; with T. b. brucei B48, 0.72 ± 0.03 µM.

Take `COc1cc(O)c(OC)c2c1C(=O)CC(c1ccccc1)O2` (stereo not drawn) [Compound 4, 5,8-dimethoxy-7-hydroxyflavanone]: the EC50 came to 48 ± 6.2 µM with T. congolense DA-Res, 55.3 ± 1.6 µM with T. b. brucei 427-WT (setting [2]) and 51.9 ± 1.6 µM in the data set with T. b. brucei B48. In addition, the “SI (Tbb), selectivity index = EC50(HFF)/EC50(Tbb)” value with HFF cells is recorded as above 6.0. This compound also gave an EC50 at 54 h in data set [1] above 330 µM. In addition, in the data set on T. b. brucei 427-WT, the “activity against Trypanosoma species (in words)” value is reported as “moderate activity”.

Turning to `COc1cc(OC)c2c(c1)OC(c1ccccc1)CC2=O` (stereo not drawn) [Compound 3, 5,7-dimethoxyflavanone], the values for the EC50 in the data set with T. congolense DA-Res, with T. b. brucei 427-WT (setting [2]) and in the data set on T. b. brucei B48 were 106 ± 15 µM, 30.1 ± 0.95 µM and 30.3 ± 1.1 µM, respectively. The “SI (Tbb), selectivity index = EC50(HFF)/EC50(Tbb)” value in the data set on HFF cells is given as above 11.7. The EC50 at 54 h in data set [1] is above 350 µM. In addition, the “activity against Trypanosoma species (in words)” value in the data set on T. b. brucei 427-WT is reported as “moderate activity”.

With `N=C(N)c1ccc(/N=N/Nc2ccc(C(=N)N)cc2)cc1` [Diminazene, diminazene aceturate, reference compound], the EC50 in the data set on T. congolense DA-Res is 1.43 ± 0.03 µM; with T. b. brucei 427-WT (setting [2]) it was 0.15 ± 0.01 µM; in the data set with T. b. brucei B48 it was 2.4 ± 0.36 µM. The “resistance of clone 6C3 versus IL3000” value in the data set with T. congolense DA-Res (line adapted in vitro to diminazene aceturate) is reported as ~ 10 fold.

`COc1cc(O)c(C(=O)/C=C/c2ccccc2)c(OC)c1` [Compound 1, 2′,4′-dimethoxy-6′-hydroxychalcone]: the EC50 in the data set with T. congolense DA-Res is 8.8 ± 0.28 µM; with T. b. brucei 427-WT (setting [2]), around 2 µM; in the data set on T. b. brucei 427-WT (read-out: EC50 against Trypanosoma brucei brucei, standard resazurin-based assay), 0.58 µg/mL; in the data set with T. b. brucei B48, 1.8 µM; in the data set with T. congolense IL3000-WT (Trypanosoma congolense, read-out: EC50 against T. congolense), 2.5 µg/mL (≈ 8.79 µM). In addition, the “SI (Tbb), selectivity index = EC50(HFF)/EC50(Tbb)” value with HFF cells was above 172. Also, the EC50 at 54 h in data set [1] is above 350 µM. For the same compound, the “activity against T. congolense (in words)” value with T. congolense IL3000-WT was “moderate activity”.

As for `COc1cc(O)c(OC)c(O)c1C(=O)/C=C/c1ccccc1` [Compound 2, 2′,5′-dimethoxy-4′,6′-dihydroxychalcone], the values for the EC50 with T. congolense DA-Res, in the data set with T. b. brucei 427-WT (setting [2]) and with T. b. brucei B48 were 28.6 ± 1.4 µM, 14.6 ± 0.8 µM and 13.9 ± 0.6 µM, respectively. In addition, the “SI (Tbb), selectivity index = EC50(HFF)/EC50(Tbb)” value in the data set on HFF cells is given as above 22.8. Further, in data set [1], the EC50 at 54 h was above 330 µM. The “fold less activity than compound 1 against T. b. brucei” value in the data set with T. b. brucei 427-WT (relative to compound 1) is reported as “about 8 fold”. Further, in the data set on T. congolense IL3000-WT (relative to compound 1), the “fold less activity than compound 1 against T. congolense” value was around 4 fold.

Values taken from publication PMC7915666, “Antitrypanosomal and Antileishmanial Activity of Chalcones and Flavanones from Polygonum salicifolium” (Pathogens, 2021).
